Experimental data: US4131727A, “Method of purifying alcohol dehydrogenase and affinity resin therefor” (President and Fellows of Harvard College, priority 1978, dated 1978)

How the values were obtained:
[1] = biological target: T1, II-ADH (anodic band of liver alcohol dehydrogenase) (Homo sapiens, UniProt P08319); assay: Inhibition of purified II-ADH (anodic band, pyrazole-insensitive liver alcohol dehydrogenase) activity; assay type: biochemical; conditions: 33 micromolar 4-methyl-pyrazole, product after agarose-AMP
T1 construct: Starting with 100 g frozen human liver; from tissue; host or cells: human liver (frozen)
T1 sequence (P08319 2-380 limits assumed): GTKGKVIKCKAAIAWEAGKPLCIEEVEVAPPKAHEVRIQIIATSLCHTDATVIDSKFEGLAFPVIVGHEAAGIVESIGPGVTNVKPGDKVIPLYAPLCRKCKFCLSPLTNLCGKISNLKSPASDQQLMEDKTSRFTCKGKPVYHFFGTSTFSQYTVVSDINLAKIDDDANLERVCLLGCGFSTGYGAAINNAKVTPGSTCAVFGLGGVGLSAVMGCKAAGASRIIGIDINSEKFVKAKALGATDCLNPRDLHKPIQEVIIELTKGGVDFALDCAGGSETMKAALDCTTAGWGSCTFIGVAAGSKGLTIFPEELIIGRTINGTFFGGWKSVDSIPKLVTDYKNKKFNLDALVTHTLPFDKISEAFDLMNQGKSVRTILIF
Description: (§1) However, purification of these enzymes has been a complicated and difficult procedure. […] Elution is preferably carried out with pyrazole solution or with a lower alkanol having at least two carbon atoms, e.g., ethanol, 1-propanol, 1-butanol, 1-pentanol, and the like. Further purification and separation of isoenzymes from the bound portion can be achieved by alcohol gradient elution. The alcohol dehydrogenase of the bound portion can be separated from the NAD after elution, if desired, by conventional dialysis procedures. […] The anodic band of liver alcohol dehydrogenase, as identified by Li et al., Biochem. Biophys. Res. Comm.

[2] = system: other forms of liver alcohol dehydrogenase; assay: Inhibition of the other (pyrazole-sensitive) forms of liver alcohol dehydrogenase; assay type: biochemical, human; conditions: 0.2 mM 4-methylpyrazole, 100 mM ethanol, remainder of the purified enzyme forms
Description: as §1

[3] = system: human liver alcohol dehydrogenase; assay: Inhibition of alcohol dehydrogenase activity of starting human liver; assay type: biochemical; conditions: 33 micromolar 4-methyl-pyrazole, pH 10, frozen human liver starting material
Procedure: Starting with 100 g frozen human liver having a specific activity of pH 10 of about 0.05 I.U./mg and low inhibition (~ 75%) by 33 micromolar 4-methyl-pyrazole at pH 10 as well as high intensity of stain for the anodic band on starch gel electrophoresis, the liver was homogenized in 2.5 volumes water at 4° C., centrifuged for 30 min. at 30,000 rpm in a 30 rotor to provide 240 ml of clear supernatant assaying at 58 I.U. of pyrazole-insensitive activity with a specific activity of 0.002 I.U./mg.

alcohol dehydrogenase = assay: Dissociation of binary complex of alcohol dehydrogenase with NAD; assay type: binding; conditions: read-out: dissociation constant of the complex
Description: The binary complex, in which two molecules of NAD are complexed with 1 molecule of alcohol dehydrogenase, can be prepared simply by mixing NAD with the crude extract of alcohol dehydrogenase. In order to ensure that substantially all of the alcohol dehydrogenase is present in solution in the form of the binary complex, it is desirable to employ an excess of the amount of NAD over that theoretically required. […] Although larger amounts of NAD can be used, there is no advantage in using a concentration above about 10^-3 molar since optimum results are achieved at that concentration with no further improvement even when the concentration of the NAD is 10^-2 molar or even higher, the results being approximately the same at these higher concentrations. The aqueous medium containing the binary complex may be acidified if desired. Satisfactory results are obtained at pH 8.0, but may be improved by decreasing the pH to approximately 7.5 in order to achieve optimum results; however, no further improvement is achieved by further lowering of the pH, the results remaining about the same even at a pH below 6.

| inhibition (in words) [1] | inhibition of activity [2] | inhibition [3] | Kd (alcohol dehydrogenase) [nM] | Structure (SMILES) |
| --- | --- | --- | --- | --- |
| virtually uninhibited | more than 90% | ~ 75% |  | Cc1cn[nH]c1 [4-methylpyrazole] |
|  |  |  | ~1000 | NC(=O)c1ccc[n+]([C@@H]2O[C@H](COP(=O)([O-])OP(=O)(O)OC[C@H]3O[C@@H](n4cnc5c(N)ncnc54)[C@H](O)[C@@H]3O)[C@@H](O)[C@H]2O)c1 [NAD] |
